Values of other authors, collected in patent publication US7105170B2, “Latent human tuberculosis model, diagnostic antigens, and methods of use” (The United States of America as represented by the …, priority 2001, dated 2006).

Test system: M. tuberculosis bacilli
Conditions: non-replicating persistent lower oxygen state (NRP2)

Row | Structure (SMILES) | alterations in drug susceptibility
1 | O=C(O)c1cn(C2CC2)c2cc(N3CCNCC3)c(F)cc2c1=O [ciprofloxicin] | resistant
2 | Cc1ncc([N+](=O)[O-])n1CCO [metronidazole] | sensitive
